Test results taken from the NIST ThermoML archive (doi:10.1016/j.jct.2016.02.015).

Test: excess molar enthalpy (molar enthalpy of mixing); xn = mol fraction of the nth substance listed
Settings: 100 kPa, Liquid, Calvet calorimetry

[Li] [lithium] + [Ga]
Settings | excess molar enthalpy [kJ/mol]
873 K, x1 = 0.703 | -19.4
873 K, x1 = 0.7734 | -16.2
873 K, x1 = 0.8058 | -14.4
873 K, x1 = 0.8391 | -12.2
873 K, x1 = 0.865 | -10.5
873 K, x1 = 0.894 | -8.5
873 K, x1 = 0.9218 | -6.4
873 K, x1 = 0.9468 | -4.1
873 K, x1 = 0.9801 | -1.4
992 K, x1 = 0.0908 | -5.1
992 K, x1 = 0.1797 | -10.2
992 K, x1 = 0.2283 | -12.8
992 K, x1 = 0.3064 | -16.1
992 K, x1 = 0.3748 | -18.7
1039 K, x1 = 0.4284 | -19.8
1039 K, x1 = 0.5421 | -21.2
1039 K, x1 = 0.652 | -20
1039 K, x1 = 0.7322 | -17
1039 K, x1 = 0.7709 | -14.8
1039 K, x1 = 0.7991 | -12.8
1039 K, x1 = 0.8282 | -11.2
